Laboratory results: PubChem BioAssay AID330 (DTP/NCI, 2004)
“And” between values parts separate entries of the source, which are not always exact repeats. Equal values may be shown once. Inconclusive results and toxic doses are left out.

System: P388 leukemia ip, CD2F1 mice, survival T/C
Test: NCI In Vivo Anticancer Drug Screen. Data for tumor model P388 Leukemia (intraperitoneal) in CD2F1 (CDF1) mice
Conditions: endpoint: median survival time, higher = longer survival
Outline: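 Mice carrying the transplanted tumor received test compound or vehicle. Survival was recorded in each group, and the value is the treated-group measurement divided by that of the vehicle-treated control group.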

[1] = dose: 25.0 mg/kg/injection, schedule: Q01DX005 (ip), vehicle: saline with Tween-80
[2] = dose: 50.0 mg/kg/injection, schedule: Q01DX005 (ip), vehicle: saline with Tween-80
[3] = dose: 50.0 mg/kg/injection, schedule: Q01DX005 (ip), vehicle: Klucel (hydroxypropylcellulose) (HPC)
[4] = dose: 100.0 mg/kg/injection, schedule: Q01DX005 (ip), vehicle: Klucel (hydroxypropylcellulose) (HPC)
[5] = dose: 200.0 mg/kg/injection, schedule: Q01DX005 (ip), vehicle: Klucel (hydroxypropylcellulose) (HPC)
[6] = dose: 12.5 mg/kg/injection, schedule: Q01DX009 (ip), vehicle: Klucel (hydroxypropylcellulose) (HPC)
[7] = dose: 25.0 mg/kg/injection, schedule: Q01DX009 (ip), vehicle: Klucel (hydroxypropylcellulose) (HPC)
[8] = dose: 50.0 mg/kg/injection, schedule: Q01DX009 (ip), vehicle: Klucel (hydroxypropylcellulose) (HPC)
[9] = dose: 60.0 mg/kg/injection, schedule: Q01DX005 (ip), vehicle: saline with Tween-80
[10] = dose: 120.0 mg/kg/injection, schedule: Q01DX005 (ip), vehicle: saline with Tween-80
[11] = dose: 200.0 mg/kg/injection, schedule: Q04DX003 (ip), vehicle: saline with Tween-80
[12] = dose: 50.0 mg/kg/injection, schedule: Q01DX001 (ip), vehicle: Klucel (hydroxypropylcellulose) (HPC)
[13] = dose: 12.5 mg/kg/injection, schedule: Q01DX009 (ip), vehicle: distilled water + Tween-80

## CC(C)CCN(CCC(C)C)CC(O)c1cc2c(c3ccccc13)CCCC2 (stereo unspecified)
dose: 12.5 mg/kg/injection, schedule: Q01DX005 (ip), vehicle: saline with Tween-80
  T/C: 96 % of control
[1]
  T/C: 93 % of control
[2]
  T/C: 103 % of control and 93 % of control
dose: 100.0 mg/kg/injection, schedule: Q01DX005 (ip), vehicle: saline with Tween-80
  T/C: 113 % of control
dose: 200.0 mg/kg/injection, schedule: Q01DX005 (ip), vehicle: saline with Tween-80
  T/C: 108 % of control

## COC(=O)/C=C\C(C)=C/C(=O)OC
[3]
  T/C: 100 % of control
[4]
  T/C: 99 % of control
[5]
  T/C: 99 % of control

## CC(=O)OC1OC(CS[As](C2CCCCC2)C2CCCCC2)C(OC(C)=O)C(OC(C)=O)C1OC(C)=O (stereo unspecified)
[6]
  T/C: 104 % of control and 111 % of control
[7]
  T/C: 104 % of control and 120 % of control
[8]
  T/C: 98 % of control and 101 % of control

## Clc1ccc(N=NN2CCOC2)cc1
[9]
  T/C: 115 % of control
[10]
  T/C: 109 % of control

## Clc1c(CBr)ccc(CBr)c1Cl
dose: 12.5 mg/kg/injection, schedule: Q01DX009 (ip), vehicle: saline with Tween-80
  T/C: 100 % of control
dose: 25.0 mg/kg/injection, schedule: Q01DX009 (ip), vehicle: saline with Tween-80
  T/C: 100 % of control
dose: 50.0 mg/kg/injection, schedule: Q01DX009 (ip), vehicle: saline with Tween-80
  T/C: 115 % of control

## Cc1cnc2cc(Cl)ccc2c1Cl
[3]
  T/C: 101 % of control
[4]
  T/C: 100 % of control
[5]
  T/C: 103 % of control

## CCC(=O)OC1C(OC2C(C)C(OC3CC(C)(OC)C(O)C(C)O3)C(C)C(=O)OC(CC)C(C)(O)C(O)C(C)C(=O)C(C)CC2(C)O)OC(C)CC1N(C)C (stereo unspecified)
dose: 50.0 mg/kg/injection, schedule: Q01DX009 (ip), vehicle: saline
  T/C: 105 % of control
dose: 100.0 mg/kg/injection, schedule: Q01DX009 (ip), vehicle: saline
  T/C: 97 % of control
dose: 200.0 mg/kg/injection, schedule: Q01DX009 (ip), vehicle: saline
  T/C: 92 % of control

## Cc1c2c[n+](CCCCCCCC[n+]3ccc4c(C)c5c(c(C)c4c3)c3ccccc3n5CCO)ccc2c(C)c2c1c1ccccc1n2CCO
dose: 0.78 mg/kg/injection, schedule: Q04DX003 (ip), vehicle: distilled water + Tween-80
  T/C: 154 % of control
dose: 1.56 mg/kg/injection, schedule: Q04DX003 (ip), vehicle: distilled water + Tween-80
  T/C: 155 % of control and 157 % of control
dose: 6.25 mg/kg/injection, schedule: Q04DX003 (ip), vehicle: distilled water + Tween-80
  T/C: 155 % of control and 158 % of control
dose: 12.5 mg/kg/injection, schedule: Q04DX003 (ip), vehicle: distilled water + Tween-80
  T/C: 158 % of control and 184 % of control
dose: 25.0 mg/kg/injection, schedule: Q04DX003 (ip), vehicle: distilled water + Tween-80
  T/C: 184 % of control
dose: 50.0 mg/kg/injection, schedule: Q04DX003 (ip), vehicle: distilled water + Tween-80
  T/C: 87 % of control

## CC1CN1P(=S)(N1CCCC1)N1CC1C (stereo unspecified)
dose: 64.0 mg/kg/injection, schedule: Q04DX003 (ip), vehicle: saline with Tween-80
  T/C: 116 % of control
dose: 66.0 mg/kg/injection, schedule: Q01DX009 (ip), vehicle: saline with Tween-80
  T/C: 150 % of control
dose: 100.0 mg/kg/injection, schedule: Q01DX009 (ip), vehicle: saline with Tween-80
  T/C: 150 % of control
dose: 150.0 mg/kg/injection, schedule: Q01DX009 (ip), vehicle: saline with Tween-80
  T/C: 86 % of control
[11]
  T/C: 159 % of control
dose: 256.0 mg/kg/injection, schedule: Q04DX003 (ip), vehicle: saline with Tween-80
  T/C: 100 % of control

## CNC(=O)N(C)C1=NC(O)(c2ccccc2)C(c2ccccc2)=N1 (stereo unspecified)
dose: 100.0 mg/kg/injection, schedule: Q04DX002 (ip), vehicle: saline with Tween-80
  T/C: 87 % of control

## Cc1ccc2c(c1)C1(SC(C)C(=O)N1c1ccc(Cl)cc1)C(=O)N2CN1CCOCC1 (stereo unspecified)
[9]
  T/C: 113 % of control
[10]
  T/C: 100 % of control
dose: 240.0 mg/kg/injection, schedule: Q01DX005 (ip), vehicle: saline with Tween-80
  T/C: 121 % of control

## COc1ccc2c(c1)C(NCCCCCCNc1cc(C)[n+](C)c3ccc(OC)cc13)=CC(C)N2C (stereo unspecified)
[1]
  T/C: 113 % of control
[2]
  T/C: 118 % of control

## CC(=O)NS(=O)(=O)c1ccc(N=NC2C(=O)N(C(=O)c3ccccc3)N=C2C)cc1 (stereo unspecified)
[12]
  T/C: 93 % of control
dose: 100.0 mg/kg/injection, schedule: Q01DX001 (ip), vehicle: Klucel (hydroxypropylcellulose) (HPC)
  T/C: 95 % of control
dose: 200.0 mg/kg/injection, schedule: Q01DX001 (ip), vehicle: Klucel (hydroxypropylcellulose) (HPC)
  T/C: 93 % of control

## C[As](C)SCC1OC(n2cnc3c(N)ncnc32)C2OC(C)(C)OC12 (stereo unspecified)
[13]
  T/C: 101 % of control
dose: 25.0 mg/kg/injection, schedule: Q01DX009 (ip), vehicle: distilled water + Tween-80
  T/C: 100 % of control
dose: 50.0 mg/kg/injection, schedule: Q01DX009 (ip), vehicle: distilled water + Tween-80
  T/C: 110 % of control
dose: 100.0 mg/kg/injection, schedule: Q01DX009 (ip), vehicle: distilled water + Tween-80
  T/C: 110 % of control
dose: 200.0 mg/kg/injection, schedule: Q01DX009 (ip), vehicle: distilled water + Tween-80
  T/C: 101 % of control

## c1cnc2nsnc2c1
[6]
  T/C: 100 % of control
[7]
  T/C: 97 % of control
[8]
  T/C: 100 % of control and 106 % of control

## COC(=O)[C@@H]1[C@@H]2O[C@@H]2[C@H]2O[C@H]2[C@H]1C(=O)O
dose: 6.25 mg/kg/injection, schedule: Q01DX001 (ip), vehicle: Klucel (hydroxypropylcellulose) (HPC)
  T/C: 113 % of control
dose: 12.5 mg/kg/injection, schedule: Q01DX001 (ip), vehicle: Klucel (hydroxypropylcellulose) (HPC)
  T/C: 103 % of control
dose: 25.0 mg/kg/injection, schedule: Q01DX001 (ip), vehicle: Klucel (hydroxypropylcellulose) (HPC)
  T/C: 100 % of control
[12]
  T/C: 99 % of control

## CSc1nc(N)c(C(N)=O)s1
[8]
  T/C: 100 % of control
dose: 100.0 mg/kg/injection, schedule: Q01DX009 (ip), vehicle: Klucel (hydroxypropylcellulose) (HPC)
  T/C: 103 % of control
dose: 200.0 mg/kg/injection, schedule: Q01DX009 (ip), vehicle: Klucel (hydroxypropylcellulose) (HPC)
  T/C: 109 % of control

## S=c1nc[nH]c2c1ncn2C1CCCC1
dose: 100.0 mg/kg/injection, schedule: Q04DX003 (ip), vehicle: saline with Tween-80
  T/C: 104 % of control
[11]
  T/C: 104 % of control
dose: 400.0 mg/kg/injection, schedule: Q04DX003 (ip), vehicle: saline with Tween-80
  T/C: 90 % of control

## COC(=O)c1cnc(N)n1C
[13]
  T/C: 101 % of control

## CC(=O)[C@@H]1C[C@H]1C(=O)c1ccccc1
dose: 67.5 mg/kg/injection, schedule: Q04DX002 (ip), vehicle: Klucel (hydroxypropylcellulose) (HPC)
  T/C: 96 % of control
dose: 135.0 mg/kg/injection, schedule: Q04DX002 (ip), vehicle: Klucel (hydroxypropylcellulose) (HPC)
  T/C: 94 % of control
dose: 270.0 mg/kg/injection, schedule: Q04DX002 (ip), vehicle: Klucel (hydroxypropylcellulose) (HPC)
  T/C: 96 % of control

## O=C(NCCCCCCNC(=O)C1CCCN1)C1CCCN1 (stereo unspecified)
dose: 15.0 mg/kg/injection, schedule: Q01DX005 (ip), vehicle: saline
  T/C: 103 % of control
dose: 30.0 mg/kg/injection, schedule: Q01DX005 (ip), vehicle: saline
  T/C: 96 % of control
dose: 60.0 mg/kg/injection, schedule: Q01DX005 (ip), vehicle: saline
  T/C: 100 % of control and 97 % of control

## C=C(C)C1Cc2c(cc(OC)c3c(=O)c4cccc(O)c4oc23)O1 (stereo unspecified)
dose: 2.5 mg/kg/injection, schedule: Q01DX009 (ip), vehicle: distilled water + alcohol
  T/C: 104 % of control
dose: 5.0 mg/kg/injection, schedule: Q01DX009 (ip), vehicle: distilled water + alcohol
  T/C: 101 % of control
dose: 10.0 mg/kg/injection, schedule: Q01DX009 (ip), vehicle: distilled water + alcohol
  T/C: 99 % of control

## CSCCC(NC=O)C(=O)NC(CC(C)C)C(=O)NC(Cc1ccccc1)C(=O)O (stereo unspecified)
dose: 12.5 mg/kg/injection, schedule: Q01DX005 (ip), vehicle: distilled water + Tween-80
  T/C: 98 % of control
dose: 25.0 mg/kg/injection, schedule: Q01DX005 (ip), vehicle: distilled water + Tween-80
  T/C: 98 % of control
dose: 50.0 mg/kg/injection, schedule: Q01DX005 (ip), vehicle: distilled water + Tween-80
  T/C: 100 % of control
dose: 100.0 mg/kg/injection, schedule: Q01DX005 (ip), vehicle: distilled water + Tween-80
  T/C: 89 % of control
dose: 200.0 mg/kg/injection, schedule: Q01DX005 (ip), vehicle: distilled water + Tween-80
  T/C: 97 % of control
